Experimental findings from patent US6624202B2, “Inhibitors of copper-containing amine oxidases” (priority 2000, dated 2003) are described below.

The structures appear in SMILES notation. Where a name gives a salt, the structure may show the parent alone.

The target of the first data set is T1, Recombinant human VAP-1 SSAO (Homo sapiens, UniProt Q16853).
T1 sequence (Q16853 1-763): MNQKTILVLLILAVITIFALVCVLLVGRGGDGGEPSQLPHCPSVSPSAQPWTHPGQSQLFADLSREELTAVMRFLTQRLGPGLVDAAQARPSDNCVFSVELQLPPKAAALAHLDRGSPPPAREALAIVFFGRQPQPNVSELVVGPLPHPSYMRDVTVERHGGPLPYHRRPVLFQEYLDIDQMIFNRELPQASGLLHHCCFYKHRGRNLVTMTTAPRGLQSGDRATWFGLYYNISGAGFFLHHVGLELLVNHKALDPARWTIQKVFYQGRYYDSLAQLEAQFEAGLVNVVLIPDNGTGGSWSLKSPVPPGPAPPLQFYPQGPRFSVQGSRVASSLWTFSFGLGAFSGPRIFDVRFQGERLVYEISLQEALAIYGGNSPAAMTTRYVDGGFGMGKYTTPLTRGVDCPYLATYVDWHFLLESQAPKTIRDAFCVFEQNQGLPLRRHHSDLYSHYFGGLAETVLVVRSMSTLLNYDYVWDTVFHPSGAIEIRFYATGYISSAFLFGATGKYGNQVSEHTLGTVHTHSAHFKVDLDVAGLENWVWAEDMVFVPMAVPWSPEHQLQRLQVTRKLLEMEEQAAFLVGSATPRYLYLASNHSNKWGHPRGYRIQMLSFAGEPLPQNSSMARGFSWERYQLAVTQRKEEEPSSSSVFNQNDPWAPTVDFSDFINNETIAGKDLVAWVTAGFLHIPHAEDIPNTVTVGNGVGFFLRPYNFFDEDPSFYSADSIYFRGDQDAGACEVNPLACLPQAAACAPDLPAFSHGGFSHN
The data set can be described thus: In vitro inhibition of VAP-1 SSAO activity (coupled colourimetric method). It is filed as biochemical.
Conditions: not given
How it is done: VAP-1 SSAO activity was measured using the coupled colourimetric method essentially as described for monoamine oxidase and related enzymes (Holt, A., et al., Anal. Biochem. 244:384-392 (1997)). Recombinant human VAP-1 SSAO expressed in Chinese Hamster Ovary (CHO) cells was used as a source of VAP-1 SSAO for activity measurements. […] These cells and their culture have previously been described (Smith, D. J., et al., J. Exp. Med. 188:17-27 (1998)). A cell lysate was prepared by suspending approximately 3.6×10^8 cells in 25 ml lysis buffer (150 mM NaCl, 10 mM Tris-Base pH 7.2, 1.5 mM MgCl2, 1% NP40) and incubating at 4° C. overnight on a rotating table. The lysate was clarified by centrifugation at 18000 g for 5 min at room temperature and the supernatant used directly in the assay. The VAP-1 SSAO assay was performed in 96 well microtitre plates as follows. To each well was added a predetermined amount of inhibitor if required. […] Controls lacked inhibitor. The inhibitor was in a total volume of 20 μl in water. The following reagents were then added. 0.2 M potassium phosphate buffer pH 7.6 to a total reaction volume of 200 μl, 45 μl of freshly made chromogenic solution containing 1 mM 2,4-dichlorophenol, 500 μM 4-aminoantipyrine and 4 U/ml horseradish peroxidase and an amount of CHO cell lysate containing VAP-1 SSAO that caused a change of 0.6 A490 per h. […] The plates were incubated for 30 min at 37° C. and the background absorbance measured at 490 nm using a Wallac Victor II multilabel counter. To initiate the enzyme reaction 20 μl 10 mM benzylamine (final concentration=1 mM) was added and the plate incubated for 1 h at 37° C. The increase in absorbance, reflecting VAP-1 SSAO activity, was measured at 490 nm. Inhibition was presented as percent inhibition compared to control after correcting for background absorbance and IC50 values calculated using GraphPad Prism.
As to `CN(N)CC(O)c1ccc(Cl)cc1` (racemic) [Compound 30], the “Selectivity for VAP-1 SSAO over MAO” value came to 68.

Still in this data set, the particulars now being: VAP-1 SSAO inhibitory activity IC50, lysate of CHO cells expressing recombinant human VAP-1 SSAO; 1 mM benzylamine; 1 h at 37° C.
`C[C@@H]([C@H](O)c1ccccc1)N(C)N` (racemic) [Compound 10]: the IC50 came out at 300 nM.

For `C[C@H](C(O)c1ccccc1)N(C)N` (single isomer, unassigned) [Compound 48], the IC50 stood at 280 nM.

Consider `CC(C(O)c1ccccc1)N(C)N` (racemic) [Compound 11], for which the IC50 stood at 170 nM.

The data set is the same for the next values; noted with them: lysate of CHO cells expressing recombinant human VAP-1 SSAO; 1 mM benzylamine; 1 h at 37° C.; read-out: VAP-1 SSAO inhibitory activity IC50.
For `NNCC(O)c1ccccc1` (single isomer, unassigned) [Compound 50], the IC50 was found to be 35 nM.

As to `COc1cccc(C(O)CNN)c1` (racemic) [Compound 33], the IC50 stood at 52 nM.

Regarding `CN(N)CC(O)c1ccc(Cl)cc1` (racemic) [Compound 30], the IC50 came out at 310 nM.

As to `NN(Cc1ccccc1)[C@@H]1CCCC[C@H]1O` (racemic) [Compound 42], the IC50 worked out at 3700 nM.

As for `NNCC(O)c1ccccc1` (single isomer, unassigned) [Compound 49], the 50% inhibitory concentration (IC50) amounted to 140 nM.

The data set is the same for the next values; noted with them: ratio of total rat MAO IC50 to human VAP-1 SSAO IC50.
In the case of `NNCC(O)c1ccccc1` (single isomer, unassigned) [Compound 50], the “Selectivity for VAP-1 SSAO over MAO” value was determined as 283.

In the case of `COc1cccc(C(O)CNN)c1` (racemic) [Compound 33], the “Selectivity for VAP-1 SSAO over MAO” value came out at 175.

Regarding `NN(Cc1ccccc1)[C@@H]1CCCC[C@H]1O` (racemic) [Compound 42], the “Selectivity for VAP-1 SSAO over MAO” value is 29.

With `C[C@@H]([C@H](O)c1ccccc1)N(C)N` (racemic) [Compound 10], the “Selectivity for VAP-1 SSAO over MAO” value is on record as 120.

Regarding `NNCC(O)c1ccccc1` (single isomer, unassigned) [Compound 49], the “Selectivity for VAP-1 SSAO over MAO” value is recorded as 70.

On to `C[C@H](C(O)c1ccccc1)N(C)N` (single isomer, unassigned) [Compound 48], for which the “Selectivity for VAP-1 SSAO over MAO” value came out at 110.

As to `CC(C(O)c1ccccc1)N(C)N` (racemic) [Compound 11], the “Selectivity for VAP-1 SSAO over MAO” value is listed as 94.

Another data set has as its system Total rat MAO. In words: Total rat MAO activity (rat liver mitochondrial preparation, colourimetric). It is filed as biochemical. To be noted: rat liver mitochondria; 0.5 mM tyramine; 1 h at 37° C.; read-out: Total MAO inhibitory activity IC50. The protocol:
Rat MAO was prepared from rat liver by rinsing the 1 g liver sample several times in 14 ml KCl-EDTA-solution to remove all blood. Then 1 g liver sample was homogenised in 4 ml ice-cold potassium phosphate buffer (0.1 M, pH 7.4) with an Ultra-Turrax homogeniser (setting 11 000 rpm, 4×10 s). After centrifugation at 500 g for 10 min at 4° C. the supernatant was carefully withdrawn and was centrifuged at 12 300 g for 15 min at 4° C. The supernatant was discharged and sedimented mitochondria were resuspended in 4 ml fresh phosphate buffer and centrifuged as previously. The mitochondria were suspended in 4 ml phosphate buffer and homogenized with an Ultra-Turrax homogeniser (setting 11 000 rpm, 2×10 s). Mitochondrial preparate was aliquoted and stored at −70° C. Total MAO activity was measured in a similar way as for VAP-1 SSAO except that 2,4-dichlorophenol was replaced by 1 mM vanillic acid. To each well was added a predetermined amount of inhibitor if required. The amount of inhibitor varied in each assay but was generally at a final concentration of between 10 nM and 800 μM. Controls lacked inhibitor. The inhibitor was in a total volume of 20 μl in water. The following reagents were then added. 0.2 M potassium phosphate buffer pH 7.6 for a total reaction volume of 300 μl, 50 μl of fleshly made chromogenic solution (as above) and 50 μl of MAO preparation. The plates were incubated for 30 min at 37° C. and the background absorbance measured at 490 nm using a Wallac Victor II multilabel counter. To initiate the enzyme reaction 20 μl of 5 mM tyramine (final concentration 0.5 mM) was added and the plate incubated for 1 h at 37° C. The increase in absorbance, reflecting MAO activity, was measured at […]. Inhibition was presented as percent inhibition compared to control after correcting for background absorbance and IC50 values calculated using GraphPad Prism. Clorgyline and pargyline (inhibitors of MAO-A and -B respectively) at 0.5 μM were added to some wells as positive controls for MAO inhibition.
Take `COc1cccc(C(O)CNN)c1` (racemic) [Compound 33]: the IC50 amounted to 9.1 µM.

With `CN(N)CC(O)c1ccc(Cl)cc1` (racemic) [Compound 30], the IC50 was 21 µM.

As for `NN(Cc1ccccc1)[C@@H]1CCCC[C@H]1O` (racemic) [Compound 42], the IC50 came out at 106 µM.

Consider `C[C@@H]([C@H](O)c1ccccc1)N(C)N` (racemic) [Compound 10], for which the IC50 was determined as 36 µM.

For `CC(C(O)c1ccccc1)N(C)N` (racemic) [Compound 11], the IC50 amounted to 16 µM.

Test system in another data set: not given
Experiment: not given
Conditions: not given
As for `NNCC(O)c1ccccc1` (single isomer, unassigned) [Compound 50], the melting point lay in the range of 98 to 103 °C.

Consider `C[C@@H]([C@H](O)c1ccccc1)N(C)N` (as salt: maleate) [Compound 1, (1R,2S)-2-(1-Methylhydrazino)-1-phenyl-1-propanol hydrogenmaleate], for which the melting point fell in the range of 111 to 113 °C.

As to `NNCC(O)c1ccccc1` (single isomer, unassigned) [Compound 49], the melting point was 99 to 104 °C.

On to `C[C@H](C(O)c1ccccc1)N(C)N` (single isomer, unassigned) [Compound 48], for which the melting point was 112 to 114 °C.

As usually defined, the IC50 is the concentration that inhibits the measured activity by half. One may read the melting point as the temperature of the solid-liquid transition.
